# Patent publication US8138189B2, “Substituted benzene compounds as modulators of the glucocorticoid receptor” (Hoffman-La Roche Inc., priority 2009, dated 2012)
# Molecular target: T1, full length human recombinant glucocorticoid receptor (Homo sapiens, UniProt P04150)
# T1 construct: partially purified full length human recombinant glucocorticoid receptor; purchased Panvera/Invitrogen PV4302
# T1 sequence (P04150 1-777): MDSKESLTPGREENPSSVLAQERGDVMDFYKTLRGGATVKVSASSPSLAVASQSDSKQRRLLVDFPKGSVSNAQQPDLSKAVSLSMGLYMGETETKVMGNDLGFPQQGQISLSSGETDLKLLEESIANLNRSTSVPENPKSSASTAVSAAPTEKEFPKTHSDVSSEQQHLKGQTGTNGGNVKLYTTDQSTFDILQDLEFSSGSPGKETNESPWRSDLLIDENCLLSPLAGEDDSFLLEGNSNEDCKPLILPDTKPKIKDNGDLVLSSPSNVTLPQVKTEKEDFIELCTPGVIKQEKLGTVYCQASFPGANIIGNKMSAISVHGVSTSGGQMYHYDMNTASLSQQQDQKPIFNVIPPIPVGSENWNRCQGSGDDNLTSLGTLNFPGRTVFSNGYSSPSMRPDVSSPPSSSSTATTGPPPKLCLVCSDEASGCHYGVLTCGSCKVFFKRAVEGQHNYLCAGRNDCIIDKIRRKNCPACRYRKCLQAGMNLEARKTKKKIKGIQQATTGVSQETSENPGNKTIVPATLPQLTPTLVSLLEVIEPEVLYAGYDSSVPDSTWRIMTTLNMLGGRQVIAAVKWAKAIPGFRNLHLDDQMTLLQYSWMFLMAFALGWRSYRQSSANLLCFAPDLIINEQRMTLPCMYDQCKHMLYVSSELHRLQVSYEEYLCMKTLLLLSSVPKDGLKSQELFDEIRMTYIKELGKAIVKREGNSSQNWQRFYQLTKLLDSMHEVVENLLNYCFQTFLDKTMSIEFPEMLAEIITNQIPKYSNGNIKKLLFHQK
# Experiment: Glucocorticoid Receptor Binding Assay (fluorescence polarization competitor assay, Fluormone GS Far Red tracer)
# Method in brief: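 Partially purified full-length recombinant human GR with a stabilizing coactivator peptide was incubated with Fluormone GS Far Red tracer and serially diluted compound for 3 h at 22 °C in the dark, pH 7.4. Fluorescence polarization was read at 610-660 nm. IC50 came from sigmoidal fitting, and Ki from Cheng-Prusoff.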
row,Ki [nM],Compound
1,23.8,"COC(=O)c1cnc(Oc2ccc([C@@H](C)[C@@](O)(c3ccc(=O)n(C)c3)C(F)(F)F)c(Cl)c2)cc1C(F)(F)F (relative stereo) [Example 163, 6-{3-Chloro-4-[3,3,3-trifluoro-2-hydroxy-1-methyl-2-(1-methyl-6-oxo-1,6-dihydro-pyridin-3-yl)-propyl]-phenoxy}-4-trifluoromethyl-nicotinic acid methyl ester]"
2,7.4,"CCn1cc([C@@](O)([C@@H](C)c2ccc(-c3ccc(C(=O)OC)c(OC)c3)cc2Cl)C(F)(F)F)ccc1=O (stereo in doubt) [Example 187, 3′-Chloro-4′-[2-(1-ethyl-6-oxo-1,6-dihydro-pyridin-3-yl)-3,3,3-trifluoro-2-hydroxy-1-methyl-propyl]-3-methoxy-biphenyl-4-carboxylic acid methyl ester]"
3,253,"C[C@H](c1cc(Oc2ncc(C(=O)O)cn2)ccc1Cl)[C@@](O)(c1ccnc(Cl)c1)C(F)(F)F (relative stereo) [Example 135, 2-{4-Chloro-3-[2-(2-chloro-pyridin-4-yl)-3,3,3-trifluoro-2-hydroxy-1-methyl-propyl]-phenoxy}-pyrimidine-5-carboxylic acid]"
4,0.7,"Cc1cc([C@@](O)([C@@H](C)c2ccc(Oc3cc(C(F)(F)F)c(C(=O)O)cn3)cc2Cl)C(F)(F)F)cn(C)c1=O (stereo in doubt) [Example 206, 6-{3-Chloro-4-[2-(1,5-dimethyl-6-oxo-1,6-dihydro-pyridin-3-yl)-3,3,3-trifluoro-2-hydroxy-1-methyl-propyl]-phenoxy}-4-trifluoromethyl-nicotinic acid]"
5,5.5,"COC(=O)c1ccc(Oc2ccc(Cl)c([C@H](C)[C@](O)(c3ccc(=O)n(C)c3)C(F)(F)F)c2)cc1Cl (relative stereo) [Example 189, 2-Chloro-4-{4-chloro-3-[3,3,3-trifluoro-2-hydroxy-1-methyl-2-(1-methyl-6-oxo-1,6-dihydro-pyridin-3-yl)-propyl]-phenoxy}-benzoic acid methyl ester]"
6,1.6,C[C@H](c1ccc(Oc2ccc(OCC(=O)O)cc2)cc1Cl)[C@@](O)(c1ccc(=O)n(C)c1)C(F)(F)F [Example 160]
7,0.9,"C[C@H](c1ccc(Oc2ccc(C(=O)O)cc2F)cc1Cl)[C@@](O)(c1ccc(=O)n(C)c1)C(F)(F)F (relative stereo) [Example 156, 4-{3-Chloro-4-[3,3,3-trifluoro-2-hydroxy-1-methyl-2-(1-methyl-6-oxo-1,6-dihydro-pyridin-3-yl)-propyl]-phenoxy}-3-fluoro-benzoic acid]"
8,175,"Cc1cnc(C(O)(C(C)c2ccc(OCc3cccc(C(=O)O)c3)cc2Cl)C(F)(F)F)cn1 (stereo not drawn) [Example 4, 3-{3-Chloro-4-[3,3,3-trifluoro-2-hydroxy-1-methyl-2-(5-methyl-pyrazin-2-yl)-propyl]-phenoxymethyl}-benzoic acid]"
9,7.5,"CCOC(=O)c1cc(-c2ccc([C@H](C)[C@](O)(c3ccc(=O)n(CC)c3)C(F)(F)F)c(Cl)c2)ccc1F (relative stereo) [Example 183, 3′-Chloro-4′-[2-(1-ethyl-6-oxo-1,6-dihydro-pyridin-3-yl)-3,3,3-trifluoro-2-hydroxy-1-methyl-propyl]-4-fluoro-biphenyl-3-carboxylic acid ethyl ester]"
10,0.7,"Cc1cc([C@@](O)([C@@H](C)c2ccc(Oc3ccc(Cl)c(C(=O)O)c3)cc2Cl)C(F)(F)F)cn(C)c1=O (stereo in doubt) [Example 211, 2-Chloro-5-{3-chloro-4-[2-(1,5-dimethyl-6-oxo-1,6-dihydro-pyridin-3-yl)-3,3,3-trifluoro-2-hydroxy-1-methyl-propyl]-phenoxy}-benzoic acid]"
11,13.9,"CC(c1ccc(Nc2ccc(C(=O)O)cc2)cc1Cl)C(O)(c1ccnc(Cl)c1)C(F)(F)F (stereo not drawn) [Example 77, 4-{3-Chloro-4-[2-(2-chloro-pyridin-4-yl)-3,3,3-trifluoro-2-hydroxy-1-methyl-propyl]-phenylamino}-benzoic acid]"
12,40.2,"C[C@H](c1ccc(Oc2cc(C(F)(F)F)c(C(=O)O)cn2)cc1Cl)[C@@](O)(c1ccc(=O)n(C)c1)C(F)(F)F (stereo in doubt) [Example 164, 6-{3-Chloro-4-[3,3,3-trifluoro-2-hydroxy-1-methyl-2-(1-methyl-6-oxo-1,6-dihydro-pyridin-3-yl)-propyl]-phenoxy}-4-trifluoromethyl-nicotinic acid]"
13,0.5,"Cc1cc([C@@](O)([C@@H](C)c2ccc(Oc3ccc(C(=O)O)c(C(F)(F)F)c3)cc2Cl)C(F)(F)F)cn(C)c1=O (stereo in doubt) [Example 214, 4-{3-Chloro-4-[2-(1,5-dimethyl-6-oxo-1,6-dihydro-pyridin-3-yl)-3,3,3-trifluoro-2-hydroxy-1-methyl-propyl]-phenoxy}-2-trifluoromethyl-benzoic acid]"
14,14.6,"C[C@H](c1ccc(Oc2ccc(C(=O)O)c(Cl)c2)cc1Cl)[C@@](O)(c1ccc(C#N)n1C)C(F)(F)F (stereo in doubt) [Example 232, 2-Chloro-4-{3-chloro-4-[2-(5-cyano-1-methyl-1H-pyrrol-2-yl)-3,3,3-trifluoro-2-hydroxy-1-methyl-propyl]-phenoxy}-benzoic acid]"
15,2.3,"C[C@H](c1ccc(Oc2ccc(C(=O)O)c(F)c2)c(Cl)c1Cl)[C@@](O)(c1ccc(=O)n(C)c1)C(F)(F)F (stereo in doubt) [Example 200, 4-{2,3-Dichloro-4-[3,3,3-trifluoro-2-hydroxy-1-methyl-2-(1-methyl-6-oxo-1,6-dihydro-pyridin-3-yl)-propyl]-phenoxy}-2-fluoro-benzoic acid]"
16,5.8,"COc1cc(C(=O)O)ccc1Oc1ccc([C@@H](C)[C@@](O)(c2ccnc(Cl)c2)C(F)(F)F)c(Cl)c1 (stereo in doubt) [Example 92, 4-{3-Chloro-4-[2-(2-chloro-pyridin-4-yl)-3,3,3-trifluoro-2-hydroxy-1-methyl-propyl]-phenoxy}-3-methoxy-benzoic acid]"
17,207,"CCOC(=O)c1cccc(-c2ccc([C@@H](C)[C@@](O)(c3ccnc(-c4cccc(C(=O)OCC)c4)c3)C(F)(F)F)c(Cl)c2)c1 (stereo in doubt) [Example 56, 3′-Chloro-4′-{2-[2-(3-ethoxycarbonyl-phenyl)-pyridin-4-yl]-3,3,3-trifluoro-2-hydroxy-1-methyl-propyl}-biphenyl-3-carboxylic acid ethyl ester]"
18,1.4,"Cc1cc([C@@](O)([C@@H](C)c2ccc(Oc3ccc(C(=O)O)c(C(F)(F)F)n3)cc2Cl)C(F)(F)F)cn(C)c1=O (stereo in doubt) [Example 209, 6-{3-Chloro-4-[2-(1,5-dimethyl-6-oxo-1,6-dihydro-pyridin-3-yl)-3,3,3-trifluoro-2-hydroxy-1-methyl-propyl]-phenoxy}-2-trifluoromethyl-nicotinic acid]"
19,228,"C[C@H](c1ccc(C(=O)Nc2cccc(C(=O)O)n2)cc1Cl)[C@@](O)(c1ccnc(Cl)c1)C(F)(F)F (relative stereo) [Example 44, 6-{3-Chloro-4-[2-(2-chloro-pyridin-4-yl)-3,3,3-trifluoro-2-hydroxy-1-methyl-propyl]-benzoylamino}-pyridine-2-carboxylic acid]"
20,9.1,"CCOC(=O)c1ccc(COc2ccc(C(C)C(O)(c3ccnc(C)c3)C(F)(F)F)c(Cl)c2)cn1 (stereo not drawn) [Example 97, 5-{3-Chloro-4-[3,3,3-trifluoro-2-hydroxy-1-methyl-2-(2-methyl-pyridin-4-yl)-propyl]-phenoxymethyl}-pyridine-2-carboxylic acid ethyl ester]"
21,38.1,"CCOC(=O)c1ccc(COc2ccc([C@@H](C)[C@@](O)(c3cnc(C)cn3)C(F)(F)F)c(Cl)c2)cc1 (stereo in doubt) [Example 7, 4-{3-Chloro-4-[(1R,2R)-3,3,3-trifluoro-2-hydroxy-1-methyl-2-(5-methyl-pyrazin-2-yl)-propyl]-phenoxymethyl}-benzoic acid ethyl ester]"
22,11.5,"C[C@H](c1ccc(OS(=O)(=O)c2ccc(C(=O)O)cc2)cc1Cl)[C@@](O)(c1ccnc(Cl)c1)C(F)(F)F (stereo in doubt) [Example 25, 4-{3-Chloro-4-[2-(2-chloro-pyridin-4-yl)-3,3,3-trifluoro-2-hydroxy-1-methyl-propyl]-phenoxysulfonyl}-benzoic acid]"
23,79.2,"COc1cc(C(=O)O)ccc1COc1ccc(C(C)C(O)(c2ccncc2)C(F)(F)F)c(Cl)c1 (stereo not drawn) [Example 109, 4-[3-Chloro-4-(3,3,3-trifluoro-2-hydroxy-1-methyl-2-pyridin-4-yl-propyl)-phenoxymethyl]-3-methoxy-benzoic acid]"
24,76.4,"C[C@@H](c1ccc(Oc2ccc(C(=O)O)cc2)cc1Cl)[C@](O)(c1ccc(=O)[nH]c1)C(F)(F)F (relative stereo) [Example 175, 4-{3-Chloro-4-[3,3,3-trifluoro-2-hydroxy-1-methyl-2-(6-oxo-1,6-dihydro-pyridin-3-yl)-propyl]-phenoxy}-benzoic acid]"
